# Experimental data from patent US20230017532A1 (Hoffmann-La Roche Inc., priority 2018, published 2023).
# Structures can show the parent of a compound that is named as a salt.
# System: Acinetobacter baumannii ATCC17978
# Assay: Antimicrobial susceptibility testing: 90% growth inhibitory concentration (IC90) determination, Iso-Sensitest broth, OD 600 nm
# Type: cell-based
# Details: 90% growth inhibitory concentration, Acinetobacter baumannii ATCC17978, Iso-Sensitest broth, OD 600 nm over 16 h; read-out: ATCC 17978 IC90
# Description: Antimicrobial Susceptibility Testing:
# 90% Growth Inhibitory Concentration (IC90) Determination
# The in vitro antimicrobial activity of the compounds was determined according to the following procedure:
# The assay used a 10-points Iso-Sensitest broth medium to measure quantitatively the in vitro activity of the compounds against Acinetobacter baumannii ATCC17978 and Acinetobacter baumannii ATCC17961.
# Stock compounds in DMSO were serially twofold diluted (e.g. range from 50 to 0.097 μM final concentration) in 384 wells microtiter plates and inoculated with 49 μl the bacterial suspension in Iso-Sensitest medium to have a final cell concentration of ˜5×10^(5) CFU/ml in a final volume/well of 50 ul/well. Microtiter plates were incubated at 35±2° C.
# Bacterial cell growth was determined with the measurement of optical density at λ=600 nm each 20 minutes over a time course of 16 h. Growth inhibition was calculated during the logarithmic growth of the bacterial cells with determination of the concentration inhibiting 50% (IC50) and 90% (IC90) of the growth.
# Table 1 provides the 90% growth inhibitory concentrations (IC90) in micromoles per liter of the compounds of present invention obtained against the strain Acinetobacter baumannii ATCC17978 and Acinetobacter baumannii ATCC17961.
row,Compound,IC90 [µM]
1,"CCc1cc(Nc2nccn3c(-c4ccc(OCC#N)c(F)c4F)cnc23)ccc1C(=O)NCCOCCN [Example 85, N-[2-(2-aminoethoxy)ethyl]-4-[[3-[4-(cyano-methoxy)-2,3-difluorophenyl]imidazo[1,2-a]pyrazin-8-yl]amino]-2-ethyl-benzamide;2,2,2-trifluoroacetic acid]",0.055
2,"CCc1cc(Nc2nccn3c(-c4ccc(Cl)c(F)c4F)cnc23)ccc1C(=O)NCCOCCN [Example 87, N-[2-(2-aminoethoxy)ethyl]-4-[[3-(4-chloro-2,3-difluoro-phenyl)imidazo [1,2-a]pyrazin-8-yl]amino]-2-ethylbenzamide]",0.18

# Same assay, conditions: Acinetobacter baumannii, ATCC17978, 16 h, 90% growth inhibitory concentration, Acinetobacter baumannii ATCC17978, Iso-Sensitest broth, OD 600 nm over 16 h; read-out: ATCC 17978 IC90
row,Compound,IC90 [µM]
1,"COc1ccc(-c2cnc3c(Nc4ccc(C(=O)NCCOCC(=O)N5CCNCC5)c(C)c4)nccn23)cc1 [Example 112, 4-[[3-(4-methoxyphenyl)imidazo[1,2-a]pyrazin-8-yl]amino]-2-methyl-N-[2-(2-oxo-2-piperazin-1-ylethoxy)ethyl] benzamide]",0.57
2,"COc1ccc(-c2cnc3c(Nc4ccc(C(=O)NCCSCCN)c(C)c4)nccn23)cc1F [Example 25, N-(2-((2-aminoethyl)thio)ethyl)-4-((3-(3-fluoro-4-methoxyphenyl)imidazo[1,2-a]pyrazin-8-yl)amino)-2-methylbenzamide]",0.15
3,"Cc1cc(Nc2nccn3c(-c4ccc(OC(F)F)cc4)cnc23)ccc1C(=O)NCCOCCNC(=O)CN(CCO)CCO [Example 146, N-[2-[2-[[2-[bis(2-hydroxyethyl)amino]acetyl]amino]ethoxy]ethyl]-4-[[3-[4-(difluoromethoxy)phenyl]imidazo [1,2-a]pyrazin-8-yl]amino]-2-methylbenzamide]",1.2
4,"CCNCCCN(CC)C(=O)c1ccc(Nc2nccn3c(-c4ccc(OC)c(F)c4)cnc23)cc1C [Example 128, N-ethyl-N-[3-(ethylamino)propyl]-4-[[3-(3-fluoro-4-methoxyphenyl)imidazo[1,2-a]pyrazin-8-yl]amino]-2-methyl-benzamide]",3.4
5,"Cc1cc(Nc2nccn3c(-c4ccc(OC(F)F)cc4)cnc23)ccc1C(=O)NCCOCCNC(=O)CN(C)C [Example 127, 4-[[3-[4-(difluoromethoxy)phenyl]imidazo [1,2-a]pyrazin-8-yl]amino]-N-[2-[2-[[2-(dimethyl-amino)acetyl]amino]ethoxy]ethyl]-2-methylbenzamide]",0.67
6,"CCc1cc(Nc2nccn3c(-c4ccc(Cl)c(F)c4F)cnc23)ccc1C(=O)NCCSCCN [Example 159, N-[2-(2-aminoethyl-sulfanyl)ethyl]-4-[[3-(4-chloro-2,3-difluorophenyl)imidazo[1,2-a]pyrazin-8-yl]amino]-2-ethylbenzamide]",0.21
7,"COc1ccc(-c2cnc3c(Nc4ccc(C(=O)NCCOCCN5CCOC5=O)c(C)c4)nccn23)cc1 [Example 76, 4-[[3-(4-methoxyphenyl)imidazo[1,2-a]pyrazin-8-yl]amino]-2-methyl-N-[2-[2-(2-oxo-1,3-oxazolidin-3-yl)ethoxy]ethyl] benzamide]",0.72
8,"COc1ccc(-c2cnc3c(Nc4ccc(C(=O)NCCN(C)CCN)c(C)c4)nccn23)cc1F [Example 23, N-(2-((2-aminoethyl)(methyl)amino)ethyl)-4-((3-(3-fluoro-4-methoxyphenyl)imidazo[1,2-a]pyrazin-8-yl)amino)-2-methylbenzamide]",0.2
9,"COc1ccc(-c2cnc3c(Nc4ccc(C(=O)N(C)CCOCCN5CCNCC5)c(C)c4)nccn23)cc1 [Example 133, formic acid; 4-[[3-(4-methoxyphenyl)imidazo[1,2-a]pyrazin-8-yl]amino]-N,2-dimethyl-N-[2-(2-piperazin-1-ylethoxy)ethyl] benzamide]",0.79
10,"CCc1cc(Nc2nccn3c(-c4ccc(OC)c(F)c4F)cnc23)ccc1C(=O)NCCCNCC(=O)O [Example 49, (3-(4-((3-(2,3-difluoro-4-methoxyphenyl)imidazo[1,2-a]pyrazin-8-yl)amino)-2-ethylbenzamido)propyl)glycine compound trifluoroacetate]",0.38
11,"Cc1cc(Nc2nccn3c(-c4ccc(OC(F)F)cc4)cnc23)ccc1C(=O)NCCOCCS(C)(=O)=O [Example 132, 4-[[3-[4-(difluoro-methoxy)phenyl]imidazo [1,2-a]pyrazin-8-yl]amino]-2-methyl-N-[2-(2-methylsulfonyl-ethoxy)ethyl] benzamide]",0.78
12,"CCCCC(=O)NCCOCCNC(=O)c1ccc(Nc2nccn3c(-c4ccc(OC)cc4)cnc23)cc1C [Example 141, 4-[[3-(4-methoxyphenyl)imidazo[1,2-a]pyrazin-8-yl]amino]-2-methyl-N-[2-[2-(pentanoylamino)ethoxy]ethyl] benzamide]",1
13,"COc1ccc(-c2cnc3c(Nc4ccc(C(=O)NCCOCCN5CC6(COC6)C5)c(C)c4)nccn23)cc1 [Example 42, N-(2-(2-(2-oxa-6-azaspiro[3.3]heptan-6-yl)ethoxy)ethyl)-4-((3-(4-methoxyphenyl)imidazo[1,2-a]pyrazin-8-yl)amino)-2-methylbenzamide]",0.25
14,"Cc1cc(Nc2nccn3c(-c4ccc(OCC#CCN)cc4)cnc23)ccc1C(=O)NCCOCCN [Example 123, 4-[[3-[4-(4-aminobut-2-ynoxy)phenyl]imidazo[1,2-a]pyrazin-8-yl]amino]-N-[2-(2-aminoethoxy)ethyl]-2-methylbenzamide; formic acid]",0.63
15,"CNCCNC(=O)c1ccc(Nc2nccn3c(-c4ccc(OC)c(Cl)c4)cnc23)cc1 [Example 13, 4-[[3-(3-chloro-4-methoxyphenyl)imidazo[1,2-a]pyrazin-8-yl]amino]-N-[2-(methylamino)ethyl]benzamide;hydrochloride]",4.2
16,"COC(=O)COCCOCCNC(=O)c1ccc(Nc2nccn3c(-c4ccc(OC(F)F)cc4)cnc23)cc1C [Example 156, methyl 2-[2-[2-[[4-[[3-[4-(difluoro-methoxy)phenyl]imidazo [1,2-a]pyrazin-8-yl]amino]-2-methylbenzoyl]amino]ethoxy]ethoxy]acetate]",2.4
17,"COc1ccc(-c2cnc3c(Nc4ccc(C(=O)N(C)CCOCCN5CCNCC5)c(Cl)c4)nccn23)cc1F [Example 163, 2-chloro-4-[[3-(3-fluoro-4-methoxyphenyl)imidazo[1,2-a]pyrazin-8-yl]amino]-N-methyl-N-[2-(2-piperazin-1-ylethoxy)ethyl] benzamide; hydrochloride]",0.57
18,"Cc1cc(Nc2nccn3c(-c4ccc(OC(F)F)cc4)cnc23)ccc1C(=O)NCCOCCN1CC[C@H]2COC[C@@H]2C1 [Example 82, N-[2-[2-[(3aS, 7aR)-3,3a,4,6,7,7a-hexahydro-1H-furo[3,4-c]pyridin-5-yl]ethoxy]ethyl]-4-[[3-[4-(difluoromethoxy)phenyl]imidazo [1,2-a]pyrazin-8-yl]amino]-2-methylbenzamide]",0.47
19,"Cc1cc(Nc2nccn3c(-c4ccc(Cl)cc4)cnc23)ccc1C(=O)N(C)CCOCCN [Example 138, N-[2-(2-aminoethoxy)ethyl]-4-[[3-(4-chlorophenyl)imidazo[1,2-a]pyrazin-8-yl]amino]-N,2-dimethyl-benzamide; hydrochloride]",0.96
20,"Cc1cc(Nc2nccn3c(-c4ccc(OC(F)F)cc4)cnc23)ccc1C(=O)NCCOCCNC(=O)C(N)CCCCN (centres unmarked) [Example 154, N-[2-[2-(2,6-diaminohexanoyl-amino)ethoxy]ethyl]-4-[[3-[4-(difluoromethoxy)phenyl]imidazo [1,2-a]pyrazin-8-yl]amino]-2-methylbenzamide; hydrochloride]",2.2

# Same assay, conditions: Acinetobacter baumannii, ATCC17978, 16 h, read-out: ATCC 17978 IC90
row,Compound,IC90 [µM]
1,"Cc1cc(Nc2nccn3c(-c4ccc(F)c(F)c4)cnc23)ccc1C(=O)NCCOCCN [Example 33, N-(2-(2-aminoethoxy)ethyl)-4-((3-(3,4-difluorophenyl)imidazo[1,2-a]pyrazin-8-yl)amino)-2-methylbenzamide hydrochloride]",0.52
2,"Cc1cc(Nc2nccn3c(-c4ccc(F)c(F)c4F)cnc23)ccc1C(=O)NCCOCCN [Example 37, N-(2-(2-aminoethoxy)ethyl)-2-methyl-4-((3-(2,3,4-trifluorophenyl)imidazo[1,2-a]pyrazin-8-yl)amino)benzamide hydrochloride]",0.37
3,"CC#CCOc1ccc(-c2cnc3c(Nc4ccc(C(=O)NCCOCCN)c(C)c4)nccn23)cc1 [Example 67, N-[2-(2-aminoethoxy)ethyl]-4-[[3-(4-but-2-ynoxyphenyl)imidazo[1,2-a]pyrazin-8-yl]amino]-2-methyl-benzamide; 2,2,2-trifluoroacetic acid]",0.23
4,"CCc1cc(Nc2nccn3c(-c4ccc(OC(F)F)c(F)c4F)cnc23)ccc1C(=O)NCCOCCO[C@H]1O[C@H](CO)[C@H](O)[C@H](O)[C@H]1O [Example 194, 4-((3-(4-(difluoro-methoxy)-2,3-difluorophenyl)imidazo[1,2-a]pyrazin-8-yl)amino)-2-ethyl-N-(2-(2-(((2S,3R, 4S,5R,6R)-3,4,5-trihydroxy-6-(hydroxymethyl)tetrahydro-2H-pyran-2-yl)oxy)ethoxy)ethyl) benzamide formate]",0.35
